Source: US20260297081A1, “COMPOUNDS AND METHODS OF TREATING CANCERS” (Cullgen Inc., priority 2023, published 2026)

What was measured:
Assay type in all cases: cell-based
T47D cells [1] = experiment: Annexin V apoptosis flow cytometry, T47D (FIG. 3A); conditions: doses approximating IC50 and IC90, 6 days
Procedure: (§1) T47D cells were treated with DMSO, palbociclib, heterobifunctional compound CPD-10 for 6 days at doses approximating IC50 and IC90 concentrations as indicated (FIG. 3A). HCC1428 cells were treated with DMSO, palbociclib, heterobifunctional compound CPD-10, or its negative control compound CPD-143 for 6 days at doses approximating IC90 concentrations as indicated (FIG. 3B). Cells were harvested by trypsinization, staining was carried out using the Annexin V Apoptosis Detection Kit.
(§2) Assays were performed on the CytoFLEX Cytometer (Beckman Coulter), and data were analyzed using CytExpert software. For cell death and apoptosis analysis, cells were harvested by trypsinization, staining was carried out using the Annexin V Apoptosis Detection Kit (BD Biosciences). Briefly, cells were resuspended in 1× binding buffer and incubated with fluorochrome-conjugated Annexin V and 7-AAD for 15 min in darkness at room temperature.

T47D cells [2] = experiment: Flow cytometric analysis of Annexin V/7-AAD stained T47D cells (apoptosis), 6 days (FIG. 3A)
Procedure: as §1, with “IC50and” for “IC50 and”, “Kit. The percentages of early apoptotic (Annexin V^+7-AAD^−, lower right quadrant), late apoptotic (Annexin V^+7-AAD^+, upper right quadrant) and necrotic cells (Annexin V^−7-AAD^+, upper left quadrant) are indicated on dot plots.” for “Kit.”

CCND3 = experiment: Immunoblotting of CCND3 protein level in Calu-1 and MCF7 cells (FIG. 1A-1B); conditions: Calu-1 cells, 4 hours
Procedure: (§3) Calu-1 cells were treated with heterobifunctional compound CPD-10, or CDK4/6 inhibitor palbociclib at indicated concentrations for 4 hours (FIG. 1A). MCF7 cells were deprived of serum for 2 hours followed by treatment with CPD-10, or palbociclib at indicated concentrations for 24 hours (FIG. 1B).
(§4) Antibody and Reagent Anti-cyclin D1 (29785), anti-cyclin D2 (3741S), anti-cyclin D3 (2936S), anti-CDK4 (127905), anti-CDK6 (3136S), anti-phospho-Rb (8516S), anti-FoxM1 (54365), anti-cyclinA2(4656S), anti-vinculin antibody (187995) antibodies were purchased from Cell Signaling Technology. HRP-conjugated anti-α-tubulin antibody and anti-α-GAPDH antibody were purchased from GNI. Media, and other cell culture reagents were purchased from Thermo Fisher Scientific. CellTiter-Glo Luminescent Assay kit was purchased from Promega.
(§5) Calu-1, T47D, MCF7, HCC1428 and other cells were cultured at 37° C. with 5% CO2 in RPMI 1640 or DMEM medium supplemented with 10% fetal bovine serum. Cells were authenticated using the short tandem repeat (STR) assays. Mycoplasma test results were negative. For palbo-resistant cell model, T47D cells were cultured long-term to resistance in the presence of 1 μM Palbociclib. Cells were deemed resistant when growing in the presence of Palbo at the same rate as parental cells.
(§6) Cultured cells were washed with cold PBS once and lysed in cold RIPA buffer supplemented with protease inhibitors and phosphatase inhibitors (Beyotime Biotechnology). The solutions were then incubated at 4 ? for 30 min with gentle agitation to fully lysed cells. Cell lysates were centrifuged at 13,000 rpm for 10 min at 4 ? and pellets were discarded. Total protein concentrations in the lysates were determined following BCA assays (Beyotime Biotechnology). Cell lysates were mixed with Laemmli loading buffer and heated at 99° C. for 5 min. Proteins were resolved on SDS-PAGE and visualized using Western ECL Substrate kits on a ChemiDoc MP Imaging system (Bio-Rad). Protein bands were quantitated using the Image Lab software provided by Bio-Rad.

CCND1 = experiment: Immunoblotting of CCND1 protein level in Calu-1 and MCF7 cells (FIG. 1A-1B)
Procedure: as §3, §4, §5, §6

[3] = system: T47D palbo-resistant cells; experiment: CellTiter-Lumi cell viability assay, T47D palbo-resistant cells, 6 days (FIG. 4); conditions: Homo sapiens, 144 h
Procedure: Furthermore, we developed one ER^+ breast cancer T47D model with acquired resistance after long period of treatment with 1 μM palbociclib (over IC90). Cells were deemed resistant when growing in the presence of palbo at the same rate as parental cells. Palbo resistance was determined by CellTiter-Lumi cell viability assay (FIG. 4, IC50>10,000 nM).

HCC1428 cells [4] = experiment: Annexin V apoptosis flow cytometry, HCC1428 (FIG. 3B); conditions: HCC1428, dose approximating IC90, 6 days
Procedure: as §1, §2

[5] = system: CCND1, CCND3, and CDK4 in Calu-1 cells; experiment: Immunoblot of CCND1, CCND3 and CDK4 protein levels in Calu-1 cells (FIG. 1A, 4 hours); conditions: Calu-1 cells, CDK4/6 inhibitor
Procedure: (§7) Specific exemplary heterobifunctional compounds were characterized in Calu-1, MCF7, T47D and other cells. Cells that express cyclin D1-3 and CDK4/6 proteins were treated with heterobifunctional compounds disclosed herein at indicated concentrations. MCF7 cells were deprived of serum for 2 hours followed by the treatment with heterobifunctional compounds. Cells were collected, lysed and subject to immunoblotting using an antibody specific to CCND1, CCND2, CCND3, CDK4, or FoxM1, cyclin A2, or phosphorylated Rb (S807/811) proteins. Tubulin or GAPDH was used as the loading control. DMSO treatment was used as the negative control.

[6] = system: CCND1, CCND3, and CDK4 in MCF7 cells; experiment: Immunoblot of CCND1, CCND3 and CDK4 protein levels in MCF7 cells under serum starvation (FIG. 1B, 24 hours); conditions: MCF7 cells, CDK4/6 inhibitor
Procedure: as §7

CDK4 = CDK4 (Homo sapiens, UniProt P11802+Q16531); experiment: Immunoblotting of CDK4 protein level in Calu-1 and MCF7 cells (FIG. 1A-1B); parameters: Cells that express cyclin D1-3 and CDK4/6 proteins were treated with heterobifunctional compounds; endogenous in cells; host or cells: Calu-1; conditions: Calu-1 cells, 4 hours
Chain of CDK4 (P11802 2-303 limits assumed): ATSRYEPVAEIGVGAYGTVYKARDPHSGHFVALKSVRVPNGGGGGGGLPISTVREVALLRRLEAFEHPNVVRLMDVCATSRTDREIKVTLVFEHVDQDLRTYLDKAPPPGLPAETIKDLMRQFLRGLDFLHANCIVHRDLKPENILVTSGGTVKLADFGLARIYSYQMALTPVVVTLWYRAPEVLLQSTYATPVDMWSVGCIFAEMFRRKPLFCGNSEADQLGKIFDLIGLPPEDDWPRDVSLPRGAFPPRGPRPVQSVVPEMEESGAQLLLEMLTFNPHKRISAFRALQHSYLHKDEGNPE
Chain of CDK4 (P24385 whole entry partner): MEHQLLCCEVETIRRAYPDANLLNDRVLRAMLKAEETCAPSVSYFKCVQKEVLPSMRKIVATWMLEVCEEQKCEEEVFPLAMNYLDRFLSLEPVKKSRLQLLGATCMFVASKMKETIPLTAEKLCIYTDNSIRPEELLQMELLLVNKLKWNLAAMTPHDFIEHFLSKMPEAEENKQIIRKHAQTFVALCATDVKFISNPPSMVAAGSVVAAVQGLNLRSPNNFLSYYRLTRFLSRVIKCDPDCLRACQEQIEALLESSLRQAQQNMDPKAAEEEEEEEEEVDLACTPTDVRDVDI
Chain of CDK4 (Q16531 2-1140 limits assumed): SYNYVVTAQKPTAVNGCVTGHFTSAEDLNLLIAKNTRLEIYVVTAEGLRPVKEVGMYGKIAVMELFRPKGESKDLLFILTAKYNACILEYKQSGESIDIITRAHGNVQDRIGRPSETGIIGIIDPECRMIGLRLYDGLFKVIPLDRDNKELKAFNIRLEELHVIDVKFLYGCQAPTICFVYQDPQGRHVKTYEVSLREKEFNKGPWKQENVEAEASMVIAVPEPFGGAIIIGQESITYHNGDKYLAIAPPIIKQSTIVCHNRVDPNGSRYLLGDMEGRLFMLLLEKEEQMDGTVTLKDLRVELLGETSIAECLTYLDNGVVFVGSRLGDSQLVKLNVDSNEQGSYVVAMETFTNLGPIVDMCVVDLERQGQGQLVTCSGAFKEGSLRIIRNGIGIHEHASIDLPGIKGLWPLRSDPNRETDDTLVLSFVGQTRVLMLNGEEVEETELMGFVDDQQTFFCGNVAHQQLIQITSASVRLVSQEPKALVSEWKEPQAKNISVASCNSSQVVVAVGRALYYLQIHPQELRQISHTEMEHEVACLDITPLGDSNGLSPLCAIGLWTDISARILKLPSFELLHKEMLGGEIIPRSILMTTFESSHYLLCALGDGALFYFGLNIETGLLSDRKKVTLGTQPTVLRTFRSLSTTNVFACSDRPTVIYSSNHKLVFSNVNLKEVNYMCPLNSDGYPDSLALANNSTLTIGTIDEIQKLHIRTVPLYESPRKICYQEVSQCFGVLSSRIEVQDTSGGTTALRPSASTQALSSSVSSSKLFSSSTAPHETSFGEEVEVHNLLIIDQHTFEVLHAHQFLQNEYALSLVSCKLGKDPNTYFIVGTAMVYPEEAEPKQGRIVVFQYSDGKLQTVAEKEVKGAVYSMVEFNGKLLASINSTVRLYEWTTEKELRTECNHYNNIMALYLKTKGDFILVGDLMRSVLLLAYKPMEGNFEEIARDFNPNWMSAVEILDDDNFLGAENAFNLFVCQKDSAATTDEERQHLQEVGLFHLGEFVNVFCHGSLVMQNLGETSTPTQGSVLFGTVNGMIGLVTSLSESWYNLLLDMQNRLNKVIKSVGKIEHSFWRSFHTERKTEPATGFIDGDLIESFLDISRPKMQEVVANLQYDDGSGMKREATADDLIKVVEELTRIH
Procedure: as §3, §4, §5, §6

HCC1428 cells [7] = experiment: Flow cytometric analysis of Annexin V/7-AAD stained HCC1428 cells (apoptosis), 6 days (FIG. 3B); conditions: HCC1428; 1 μM; 6 days
Procedure: as §1, with “IC50and” for “IC50 and”, “Kit. The percentages of early apoptotic (Annexin V^+7-AAD^−, lower right quadrant), late apoptotic (Annexin V^+7-AAD^+, upper right quadrant) and necrotic cells (Annexin V^−7-AAD^+, upper left quadrant) are indicated on dot plots.” for “Kit.”

In the case of `CC(=O)c1c(C)c2cnc(Nc3ccc(N4CCNCC4)cn3)nc2n(C2CCCC2)c1=O` [Palbociclib, palbociclib, reference compound], the cell apoptosis (T47D cells [1]) is reported as “much less effect on cell apoptosis”, the “Annexin V+ population” value (T47D cells [2]; 100 nM) is reported as 15.9% and the “Annexin V+ population” value (T47D cells [2]; 1 μM) is reported as 26.1%. For the same molecule, the CCND3 protein level (CCND3) was “did not significantly change the levels of these proteins in Calu-1 cells”, the CCND1 protein level (CCND1; Calu-1 cells, 4 hours) was “did not significantly change the levels of these proteins in Calu-1 cells” and the CCND1 protein level (CCND1; MCF7 cells, serum deprived 2 hours, treated 24 hours) was “accumulated CCND1 protein levels in MCF7 cells”. For the same molecule, the IC50 [3] was greater than 10 µM, the cell apoptosis (HCC1428 cells [4]) was “much less effect on cell apoptosis” and the “effect on CCND and CDK4 protein levels (result in words)” value [5] was “no significant effect”. For the same molecule, the “effect on CCND1 protein levels (result in words)” value [6] was “accumulation of CCND1 protein levels”, the CDK4 protein level (CDK4) was “did not significantly change the levels of these proteins in Calu-1 cells” and the “Annexin V+ population” value (HCC1428 cells [7]) was 17.7%.
